Assays:
[1] = target: Human plasma kallikrein (Homo sapiens (Human), UniProt P03952); assay: Kallikrein Assay (fluorogenic substrate Acetyl-K-P-R-AFC); assay type: biochemical; settings: Plasma Kallikrein (PKal)
Procedure, shortened: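 Ki is derived from IC50 with the Cheng-Prusoff equation, and IC50 from the inflection point of a four-parameter logistic curve. The rate of AFC release is read with 0.5 nM purified enzyme and […] substrate at room temperature or 37 °C.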

[2] = target: human Factor XIa (Homo sapiens (Human), UniProt P03951); assay: Factor XIa Assay (fluorogenic substrate GPR-AFC); assay type: biochemical; settings: Factor XIa (FXIa)
human Factor XIa, sequence (P03951 388-625 limits assumed): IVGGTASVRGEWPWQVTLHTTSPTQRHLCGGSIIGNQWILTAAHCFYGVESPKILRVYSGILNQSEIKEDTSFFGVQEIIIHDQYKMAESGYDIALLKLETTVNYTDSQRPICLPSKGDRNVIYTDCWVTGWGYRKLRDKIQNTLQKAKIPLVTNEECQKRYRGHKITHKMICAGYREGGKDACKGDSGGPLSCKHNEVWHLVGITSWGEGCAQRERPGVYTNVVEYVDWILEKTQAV
human Factor XIa, sequence (P03951 19-387 partner limits assumed): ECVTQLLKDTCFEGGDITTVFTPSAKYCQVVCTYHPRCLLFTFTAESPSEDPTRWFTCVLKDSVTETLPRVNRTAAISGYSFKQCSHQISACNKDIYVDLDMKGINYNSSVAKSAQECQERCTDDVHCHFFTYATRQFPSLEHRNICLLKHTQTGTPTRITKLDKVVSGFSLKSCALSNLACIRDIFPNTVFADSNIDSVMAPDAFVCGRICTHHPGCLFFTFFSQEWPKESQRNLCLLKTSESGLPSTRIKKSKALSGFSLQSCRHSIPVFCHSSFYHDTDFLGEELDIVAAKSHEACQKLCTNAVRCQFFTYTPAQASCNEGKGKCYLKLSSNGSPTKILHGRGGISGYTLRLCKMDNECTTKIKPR

Human plasma kallikrein, sequence (P03952 391-638): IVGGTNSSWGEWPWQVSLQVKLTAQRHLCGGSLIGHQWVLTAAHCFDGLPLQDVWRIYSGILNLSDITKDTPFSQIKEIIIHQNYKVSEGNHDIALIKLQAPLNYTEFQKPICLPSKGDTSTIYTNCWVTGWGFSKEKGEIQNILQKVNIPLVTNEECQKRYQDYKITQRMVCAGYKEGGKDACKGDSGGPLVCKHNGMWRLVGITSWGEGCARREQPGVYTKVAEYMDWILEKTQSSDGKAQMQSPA
Human plasma kallikrein, sequence (P03952 20-390 partner): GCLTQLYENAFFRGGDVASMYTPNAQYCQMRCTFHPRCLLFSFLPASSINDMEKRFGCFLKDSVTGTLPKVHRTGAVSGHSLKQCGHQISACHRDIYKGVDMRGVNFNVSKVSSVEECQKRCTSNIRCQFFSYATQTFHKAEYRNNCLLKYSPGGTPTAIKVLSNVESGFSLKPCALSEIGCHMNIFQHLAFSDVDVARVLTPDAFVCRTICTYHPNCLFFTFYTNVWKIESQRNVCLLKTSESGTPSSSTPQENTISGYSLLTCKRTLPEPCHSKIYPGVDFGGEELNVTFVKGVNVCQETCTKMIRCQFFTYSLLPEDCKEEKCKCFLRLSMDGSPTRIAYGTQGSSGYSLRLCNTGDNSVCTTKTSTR

IC50 [1] [µM] | IC50 [2] [µM] | SMILES
0.0071 | 8.2 | COc1c(N2C[C@H]3C[C@H]3C2=O)ncc(C(C)n2cc(NC(=O)c3cncc(-c4c(C(F)F)ccc(Cl)c4F)n3)cn2)c1C (single isomer, unassigned) [Example 155, 6-(3-Chloro-6-(difluoromethyl)-2-fluorophenyl)-N-(1-((S or R)-1-(5-methoxy-4-methyl-6-((1R,5S)-2-oxo-3-azabicyclo[3.1.0]hexan-3-yl)pyridin-3-yl)ethyl)-1H-pyrazol-4-yl)pyrazine-2-carboxamide]
0.0267 | > 10 | O=C(Nc1cnn(C(CO)c2cnc(N3CC4CC4C3=O)nc2)c1)c1cncc(-c2c(C(F)F)ccc(Cl)c2F)n1 (single isomer, unassigned) [Example 161, 6-(3-chloro-6-(difluoromethyl)-2-fluorophenyl)-N-(1-((S or R)-2-hydroxy-1-(2-((1S,5R or 1R,5S)-2-oxo-3-azabicyclo[3.1.0]hexan-3-yl)pyrimidin-5-yl)ethyl)-1H-pyrazol-4-yl)pyrazine-2-carboxamide]
0.0087 | 3.45 | Cc1ncc(-c2c(C(F)F)ccc(Cl)c2F)nc1C(=O)Nc1cnn(C(CO)c2ccc(N3CC4CC4C3=O)nc2)c1 (single isomer, unassigned) [Example 162, 6-(3-chloro-6-(difluoromethyl)-2-fluorophenyl)-N-(1-((S or R)-2-hydroxy-1-(6-((1S,5R or 1R,5S)-2-oxo-3-azabicyclo[3.1.0]hexan-3-yl)pyridin-3-yl)ethyl)-1H-pyrazol-4-yl)-3-methylpyrazine-2-carboxamide]
0.0092 | > 10 | Cc1ncc(-c2c(C(F)F)ccc(Cl)c2F)nc1C(=O)Nc1cnn(C(CO)c2ccc(N3CC4CC4C3=O)nc2)c1 (single isomer, unassigned) [Example 163, 6-(3-Chloro-6-(difluoromethyl)-2-fluorophenyl)-N-(1-((S or R)-2-hydroxy-1-(6-((1S,5R or 1R,5S)-2-oxo-3-azabicyclo[3.1.0]hexan-3-yl)pyridin-3-yl)ethyl)-1H-pyrazol-4-yl)-3-methylpyrazine-2-carboxamide]
0.0054 | 4.89 | Cc1ncc(-c2c(C(F)F)ccc(Cl)c2F)nc1C(=O)Nc1cnn(C(CO)c2cnc(N3C[C@H]4C[C@H]4C3=O)nc2)c1 (single isomer, unassigned) [Example 164, 6-(3-Chloro-6-(difluoromethyl)-2-fluorophenyl)-N-(1-((R or S)-2-hydroxy-1-(2-((1R,5S)-2-oxo-3-azabicyclo[3.1.0]hexan-3-yl)pyrimidin-5-yl)ethyl)-1H-pyrazol-4-yl)-3-methylpyrazine-2-carboxamide]
0.0207 | 2.05 | Cc1ncc(-c2c(C(F)F)ccc(Cl)c2F)nc1C(=O)Nc1cnn(C(CO)c2cnc(N3C[C@H]4C[C@H]4C3=O)nc2)c1 (single isomer, unassigned) [Example 165, 6-(3-Chloro-6-(difluoromethyl)-2-fluorophenyl)-N-(1-((S or R)-2-hydroxy-1-(2-((1R,5S)-2-oxo-3-azabicyclo[3.1.0]hexan-3-yl)pyrimidin-5-yl)ethyl)-1H-pyrazol-4-yl)-3-methylpyrazine-2-carboxamide]
0.0197 | > 10 | Cc1ncc(-c2c(C#N)ccc(Cl)c2F)nc1C(=O)Nc1cnn(C(CO)c2cnc(N3C[C@H]4C[C@H]4C3=O)nc2)c1 (single isomer, unassigned) [Example 166, 6-(3-Chloro-6-cyano-2-fluorophenyl)-N-(1-((R or S)-2-hydroxy-1-(2-((1R,5S)-2-oxo-3-azabicyclo[3.1.0]hexan-3-yl)pyrimidin-5-yl)ethyl)-1H-pyrazol-4-yl)-3-methylpyrazine-2-carboxamide]
0.0105 | 3.65 | Cc1c(C(CO)n2cc(NC(=O)c3cncc(-c4c(C(F)F)ccc(Cl)c4F)n3)cn2)cnc(N2C[C@H]3C[C@H]3C2=O)c1C (single isomer, unassigned) [Example 167, 6-(3-Chloro-6-(difluoromethyl)-2-fluorophenyl)-N-(1-([R or S)-1-(4,5-dimethyl-6-((1R,5S)-2-oxo-3-azabicyclo[3.1.0]hexan-3-yl)pyridin-3-yl)-2-hydroxyethyl)-1H-pyrazol-4-yl)pyrazine-2-carboxamide]
0.0004 | 0.261 | Cc1c(C(CO)n2cc(NC(=O)c3cncc(-c4c(C(F)F)ccc(Cl)c4F)n3)cn2)cnc(N2C[C@H]3C[C@H]3C2=O)c1C (single isomer, unassigned) [Example 168, 6-(3-Chloro-6-(difluoromethyl)-2-fluorophenyl)-N-(1-((S or R)-1-(4,5-dimethyl-6-((1R,5S)-2-oxo-3-azabicyclo[3.1.0]hexan-3-yl)pyridin-3-yl)-2-hydroxyethyl)-1H-pyrazol-4-yl)pyrazine-2-carboxamide]
0.0053 | 4.55 | C[C@@H](c1cnc(N2C[C@H]3C[C@H]3C2=O)nc1)n1cc(NC(=O)c2nc(-c3c(C(F)F)ccc(Cl)c3F)cnc2C(O)C(F)(F)F)cn1 (single isomer, unassigned) [Example 176, 6-(3-Chloro-6-(difluoromethyl)-2-fluorophenyl)-N-(1-((S)-1-(2-((1R,5S)-2-oxo-3-azabicyclo[3.1.0]hexan-3-yl)pyrimidin-5-yl)ethyl)-1H-pyrazol-4-yl)-3-((S or R)-2,2,2-trifluoro-1-hydroxyethyl)pyrazine-2-carboxamide]
0.0478 | > 10 | C[C@@H](c1cnc(N2C[C@H]3C[C@H]3C2=O)nc1)n1cc(NC(=O)c2nc(-c3c(C(F)F)ccc(Cl)c3F)cnc2C(O)C(F)(F)F)cn1 (single isomer, unassigned) [Example 177, 6-(3-Chloro-6-(difluoromethyl)-2-fluorophenyl)-N-(1-((S)-1-(2-((1R,5S)-2-oxo-3-azabicyclo[3.1.0]hexan-3-yl)pyrimidin-5-yl)ethyl)-1H-pyrazol-4-yl)-3-((R or S)-2,2,2-trifluoro-1-hydroxyethyl)pyrazine-2-carboxamide]
0.0142 | 4.53 | [2H]C1([2H])C2CC2C(=O)N1c1ncc([C@H](C)n2cc(NC(=O)c3nc(-c4c(C(F)F)ccc(Cl)c4F)cnc3C)cn2)c(C)n1 (single isomer, unassigned) [Example 178, 6-(3-Chloro-6-(difluoromethyl)-2-fluorophenyl)-3-methyl-N-(1-((S)-1-(4-methyl-2-((1R,5S or 1S,5R)-2-oxo-3-azabicyclo[3.1.0]hexan-3-yl-4,4-d2)pyrimidin-5-yl)ethyl)-1H-pyrazol-4-yl)pyrazine-2-carboxamide]
0.0007 | 1.82 | [2H]C1([2H])C2CC2C(=O)N1c1ncc([C@H](C)n2cc(NC(=O)c3nc(-c4c(C(F)F)ccc(Cl)c4F)cnc3C)cn2)c(C)n1 (single isomer, unassigned) [Example 179, 6-(3-Chloro-6-(difluoromethyl)-2-fluorophenyl)-3-methyl-N-(1-((S)-1-(4-methyl-2-((1S,5R or 1R,5S)-2-oxo-3-azabicyclo[3.1.0]hexan-3-yl-4,4-d2)pyrimidin-5-yl)ethyl)-1H-pyrazol-4-yl)pyrazine-2-carboxamide]
0.0005 | 0.262 | Cc1nc(N2C[C@H]3C[C@H]3C2=O)ncc1C(C)n1cc(NC(=O)c2nc(-c3c(C(F)F)ccc(Cl)c3F)cnc2CO)cn1 (single isomer, unassigned) [Example 194, 6-(3-Chloro-6-(difluoromethyl)-2-fluorophenyl)-3-(hydroxymethyl)-N-(1-((S or R)-1-(4-methyl-2-((1R,5S)-2-oxo-3-azabicyclo[3.1.0]hexan-3-yl)pyrimidin-5-yl)ethyl)-1H-pyrazol-4-yl)pyrazine-2-carboxamide]
0.0182 | 0.765 | Cc1nc(N2C[C@H]3C[C@H]3C2=O)ncc1C(C)n1cc(NC(=O)c2nc(-c3c(C(F)F)ccc(Cl)c3F)cnc2CO)cn1 (single isomer, unassigned) [Example 195, 6-(3-Chloro-6-(difluoromethyl)-2-fluorophenyl)-3-(hydroxymethyl)-N-(1-((R or S)-1-(4-methyl-2-((1R,5S)-2-oxo-3-azabicyclo[3.1.0]hexan-3-yl)pyrimidin-5-yl)ethyl)-1H-pyrazol-4-yl)pyrazine-2-carboxamide]
0.0002 | 0.048 | Cc1nc(C(C)n2cc(NC(=O)c3nc(-c4c(C(F)F)ccc(Cl)c4F)cnc3CO)cn2)cnc1N1C[C@H]2C[C@H]2C1=O (single isomer, unassigned) [Example 197, 6-(3-Chloro-6-(difluoromethyl)-2-fluorophenyl)-3-(hydroxymethyl)-N-(1-((S or R)-1-(6-methyl-5-((1R,5S)-2-oxo-3-azabicyclo[3.1.0]hexan-3-yl)pyrazin-2-yl)ethyl)-1H-pyrazol-4-yl)pyrazine-2-carboxamide]
0.0001 | 0.11 | Cc1nc(C(C)n2cc(NC(=O)c3nc(-c4c(C(F)F)ccc(Cl)c4F)cnc3CO)cn2)cnc1N1C[C@H]2C[C@H]2C1=O (single isomer, unassigned) [Example 198, 6-(3-Chloro-6-(difluoromethyl)-2-fluorophenyl)-3-(hydroxymethyl-N-(1-((R or S)-I-(6-methyl-5-((1R,5S)-2-oxo-3-azabicyclo[3.1.0]hexan-3-yl)pyrazin-2-yl)ethyl)-1H-pyrazol-4-yl)pyrazine-2-carboxamide]
0.0004 | 0.052 | Cc1c(C(C)n2cc(NC(=O)c3nc(-c4c(C(F)F)ccc(Cl)c4F)cnc3CO)cn2)cnc(N2C[C@H]3C[C@H]3C2=O)c1C (single isomer, unassigned) [Example 201, 6-(3-Chloro-6-(difluoromethyl)-2-fluorophenyl)-N-(1-((S or R)-1-(4,5-dimethyl-6-((1R,5S)-2-oxo-3-azabicyclo[3.1.0]hexan-3-yl)pyridin-3-yl)ethyl)-1H-pyrazol-4-yl)-3-(hydroxymethyl)pyrazine-2-carboxamide]

From patent US20230286958A1, “PLASMA KALLIKREIN INHIBITORS” (Merck Sharp & Dohme LLC, priority 2020, published 2023)
